Data from US9963467B2, “Boronic acid derivatives and therapeutic uses thereof” (Rempex Pharmaceuticals, Inc., priority 2014, dated 2018).

Experiments:
[1] = molecular target: CTX-M-14 (Escherichia coli, UniProt Q9L5C7); assay: Ki, nitrocefin cleavage by purified enzyme, CTX-M-14; type: biochemical; conditions: nitrocefin reporter substrate; read-out: Ki (CTX-M-14, NCF)
Method in brief: (§1)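 Readout: nitrocefin hydrolysis, A490 recorded every 10 sec over 10 min. Enzyme and inhibitor (varied concentrations) preincubated 10 min, RT, in reaction buffer before substrate addition.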

[2] = tested on: KP1005 (CTX-M-14); assay: Tigemonam potentiation (MPC@4), KP1005; type: cell-based; conditions: BLI with tigemonam at 4 μg/mL
[3] = tested on: EC1010 (CMY-6); assay: Tigemonam potentiation (MPC@4), EC1010; type: cell-based; conditions: BLI with tigemonam at 4 μg/mL
[4] = tested on: KP1009 (CTX-M-15); assay: organism not typed; type: cell-based
[5] = molecular target: P99 (Enterobacter cloacae, UniProt P05364); assay: Ki, nitrocefin cleavage by purified enzyme, P99; type: biochemical; conditions: nitrocefin reporter substrate; read-out: Ki (P99, NCF)
Method in brief: as §1

[6] = molecular target: OXA-48 (Klebsiella pneumoniae, UniProt Q6XEC0); assay: Ki, nitrocefin cleavage by purified enzyme, OXA-48; type: biochemical; conditions: nitrocefin reporter substrate; read-out: Ki (OXA-48, NCF)
Method in brief: as §1

[7] = tested on: ECL1002; assay: Tigemonam potentiation (MPC@4), ECL1002; type: cell-based; conditions: BLI with tigemonam at 4 μg/mL
[8] = tested on: KP1009 (CTX-M-15); assay: Tigemonam potentiation (MPC@4), KP1009; type: cell-based; conditions: BLI with tigemonam at 4 μg/mL
[9] = molecular target: Pa AmpC (Pseudomonas aeruginosa, UniProt P24735); assay: Ki, nitrocefin cleavage by purified enzyme, Pa AmpC; type: biochemical; conditions: nitrocefin reporter substrate; read-out: Ki (Pa AmpC, NCF)
Method in brief: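 Ki derived spectrophotometrically: after adding nitrocefin, absorbance at 490 nm recorded every 10 sec over 10 min. Each purified enzyme had first been incubated with inhibitor at several concentrations for 10 min at room temperature.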

[10] = tested on: ec302 (TEM-10); assay: Aztreonam potentiation (MPC@4), ec302; type: cell-based; conditions: BLI with aztreonam at 4 μg/mL
[11] = tested on: KP1004 (KPC-2); assay: Biapenem potentiation (MPC@1), KP1004; conditions: BLI with biapenem at 1 μg/mL
[12] = tested on: ec302 (TEM-10); assay: Tigemonam potentiation (MPC@4), ec302; type: cell-based
[13] = tested on: KP1005 (CTX-M-14); assay: Aztreonam potentiation (MPC@4), KP1005; type: cell-based; conditions: BLI with aztreonam at 4 μg/mL
[14] = tested on: KP1010 (SHV-12); assay: Tigemonam potentiation (MPC@4), KP1010; type: cell-based
[15] = tested on: KP1086 (OXA-48); assay: Biapenem potentiation (MPC@1), KP1086; conditions: BLI with biapenem at 1 μg/mL
[16] = tested on: ECL1002; assay: Aztreonam potentiation (MPC@4), ECL1002; type: cell-based; conditions: BLI with aztreonam at 4 μg/mL
[17] = molecular target: SHV-12 (Klebsiella pneumoniae, UniProt P0AD64, E235K/G234S/L31Q); assay: Ki, nitrocefin cleavage by purified enzyme, SHV-12; type: biochemical; conditions: nitrocefin reporter substrate; read-out: Ki (SHV-12, NCF)
Method in brief: as §1

[18] = Monomer content of pH adjusted aqueous solutions (LC-UV); type: physicochemical; conditions: 1 mg/mL aqueous salt solution, pH adjusted to 7.6 to 8, LC-UV
Method in brief: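 Aqueous solutions at 1.00, 10.0 or 100 mg/mL (active fraction) brought to pH 7.6–8 with acid or base, compound fully dissolved. Injected within half an hour of preparation onto C18 reversed-phase LC (0.1% TFA water / 0.085% TFA methanol gradient); UV detection at 220, 254 and 300 nm.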

[19] = tested on: ec308 (SHV-5); assay: Tigemonam potentiation (MPC@4), ec308; type: cell-based
[20] = molecular target: KPC-2 (Klebsiella pneumoniae, UniProt Q9F663); assay: Ki, nitrocefin cleavage by purified enzyme, KPC-2; type: biochemical; conditions: nitrocefin reporter substrate; read-out: Ki (KPC-2, NCF)
Method in brief: as §1

[21] = tested on: ec308 (SHV-5); assay: Aztreonam potentiation (MPC@4), ec308; type: cell-based; conditions: BLI with aztreonam at 4 μg/mL
[22] = tested on: KP1004 (KPC-2); assay: Aztreonam potentiation (MPC@4), KP1004; type: cell-based; conditions: BLI with aztreonam at 4 μg/mL
[23] = tested on: EC1010 (CMY-6); assay: organism not typed; type: cell-based

Sequence of P99 (P05364 21-381): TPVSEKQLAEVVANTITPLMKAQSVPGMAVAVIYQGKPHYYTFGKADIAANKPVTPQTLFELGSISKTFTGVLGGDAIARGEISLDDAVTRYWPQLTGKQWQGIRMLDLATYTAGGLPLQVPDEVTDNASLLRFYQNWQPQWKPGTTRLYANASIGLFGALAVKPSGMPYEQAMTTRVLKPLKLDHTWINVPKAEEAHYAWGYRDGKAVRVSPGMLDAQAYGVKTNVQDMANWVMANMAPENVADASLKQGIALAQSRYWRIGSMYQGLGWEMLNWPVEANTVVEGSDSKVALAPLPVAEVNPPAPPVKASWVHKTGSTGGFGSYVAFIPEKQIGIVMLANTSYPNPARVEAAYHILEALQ
Sequence of OXA-48 (Q6XEC0 23-265, looked up, species assumed): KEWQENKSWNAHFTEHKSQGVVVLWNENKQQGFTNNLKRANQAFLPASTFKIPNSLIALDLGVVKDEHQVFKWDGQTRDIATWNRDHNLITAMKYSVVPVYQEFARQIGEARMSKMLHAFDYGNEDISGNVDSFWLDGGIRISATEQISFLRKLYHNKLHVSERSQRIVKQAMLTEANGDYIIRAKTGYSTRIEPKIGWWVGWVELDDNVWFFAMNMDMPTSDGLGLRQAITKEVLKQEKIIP
Sequence of Pa AmpC (P24735 27-397): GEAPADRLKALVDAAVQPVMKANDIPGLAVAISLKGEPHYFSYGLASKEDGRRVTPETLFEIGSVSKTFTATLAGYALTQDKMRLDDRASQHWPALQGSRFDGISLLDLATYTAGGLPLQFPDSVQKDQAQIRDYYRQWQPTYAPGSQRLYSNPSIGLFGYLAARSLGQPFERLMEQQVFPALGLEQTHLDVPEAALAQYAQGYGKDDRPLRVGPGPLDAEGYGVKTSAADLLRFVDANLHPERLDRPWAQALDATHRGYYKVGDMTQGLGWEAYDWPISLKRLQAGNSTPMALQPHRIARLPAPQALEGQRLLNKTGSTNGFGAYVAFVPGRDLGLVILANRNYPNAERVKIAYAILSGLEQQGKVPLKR
Sequence of CTX-M-14 (Q9L5C7 29-291): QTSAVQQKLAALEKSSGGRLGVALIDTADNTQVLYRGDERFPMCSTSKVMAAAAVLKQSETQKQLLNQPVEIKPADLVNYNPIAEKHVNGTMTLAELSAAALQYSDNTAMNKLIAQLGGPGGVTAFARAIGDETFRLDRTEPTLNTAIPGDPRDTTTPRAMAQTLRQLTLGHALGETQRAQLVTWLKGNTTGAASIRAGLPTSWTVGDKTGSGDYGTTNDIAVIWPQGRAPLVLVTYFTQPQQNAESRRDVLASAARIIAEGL
Sequence of SHV-12 (P0AD64 22-286 L31Q/G234S/E235K): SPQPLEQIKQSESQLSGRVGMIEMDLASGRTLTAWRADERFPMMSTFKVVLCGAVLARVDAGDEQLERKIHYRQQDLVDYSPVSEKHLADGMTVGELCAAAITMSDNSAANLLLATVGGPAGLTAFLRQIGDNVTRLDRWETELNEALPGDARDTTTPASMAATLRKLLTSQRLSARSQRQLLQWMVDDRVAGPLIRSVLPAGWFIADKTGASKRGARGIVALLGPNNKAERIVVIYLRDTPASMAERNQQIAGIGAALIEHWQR
Sequence of KPC-2 (Q9F663 25-293, looked up, species assumed): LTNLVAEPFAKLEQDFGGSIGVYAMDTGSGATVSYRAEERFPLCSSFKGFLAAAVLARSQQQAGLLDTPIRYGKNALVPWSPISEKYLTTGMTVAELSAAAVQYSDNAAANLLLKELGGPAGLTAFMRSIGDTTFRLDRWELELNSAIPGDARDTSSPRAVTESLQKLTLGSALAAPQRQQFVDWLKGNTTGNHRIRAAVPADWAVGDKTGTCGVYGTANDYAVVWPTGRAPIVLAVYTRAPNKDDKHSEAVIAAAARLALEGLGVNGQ

Structure (SMILES)	Ki [1] [nM]	TIG MPC4 CTX-M-14 KP1005 [2]	TIG MPC4 CMY-6 EC1010 [3]	AZT MPC4 CTX-M-15 KP1009 [4]	Ki [5] [nM]	Ki [6] [nM]	TIG MPC4 ECL1002 [7]	TIG MPC4 CTX-M-15 KP1009 [8]	Ki [9] [nM]	AZT MPC4 TEM-10 ec302 [10]	BPM MPC1 KP1004 KPC-2 [11]	TIG MPC4 TEM-10 ec302 [12]	AZT MPC4 CTX-M-14 KP1005 [13]	TIG MPC4 SHV-12 KP1010 [14]	BPM MPC1 OXA-48 KP1086 [15]	AZT MPC4 ECL1002 [16]	Ki [17] [nM]	% Monomer in 1 mg/mL salt solution [18] [%]	TIG MPC4 SHV-5 ec308 [19]	Ki [20] [nM]	further results
CSCC(=O)N[C@H]1Cc2c(F)cc(F)c(C(=O)O)c2OB1O [Compound 32, (R)-5,7-difluoro-2-hydroxy-3-(2-(methylthio)acetamido)-3,4-dihydro-2H-benzo[e][1,2]oxaborinine-8-carboxylic acid]	1 to 10	Y (MIC of 1 μg/mL to 10 μg/mL)	Y (MIC of 1 μg/mL to 10 μg/mL)	Y (key: X: MIC of less than 1 ng/mL; Y: MIC of 1 μg/mL to 10 μg/mL; Z: MIC of greater than 10 μg/mL)	> 10	1 to 10	Y (MIC of 1 μg/mL to 10 μg/mL)	Y (MIC of 1 μg/mL to 10 μg/mL)	> 10	Y (MIC of 1 μg/mL to 10 μg/mL)	X (MIC of less than 1 μg/mL)	Z (key: X: MIC of less than 1 ng/mL; Y: MIC of 1 μg/mL to 10 μg/mL; Z: MIC of greater than 10 μg/mL)	Y (MIC of 1 μg/mL to 10 μg/mL)	X (key: X: MIC of less than 1 μg/mL; Y: MIC of 1 μg/mL to 10 μg/mL; Z: MIC of greater than 10 μg/mL)	Y (MIC of 1 μg/mL to 10 μg/mL)	Y (MIC of 1 μg/mL to 10 μg/mL)	< 1	95.8	Y (key: X: MIC of less than 1 ng/mL; Y: MIC of 1 μg/mL to 10 μg/mL; Z: MIC of greater than 10 μg/mL)	> 10	AZT MPC4 SHV-5 ec308 [21]: Y (MIC of 1 μg/mL to 10 μg/mL); AZT MPC4 KPC-2 KP1004 [22]: Y (MIC of 1 μg/mL to 10 μg/mL); AZT MPC4 CMY-6 EC1010 [23]: Y (key: X: MIC of less than 1 ng/mL; Y: MIC of 1 μg/mL to 10 μg/mL; Z: MIC of greater than 10 μg/mL)
CSCC(=O)N[C@@H]1Cc2ccc(F)c(C(=O)O)c2OB1O [Compound 31, (S)-7-fluoro-2-hydroxy-3-(2-(methylthio)acetamido)-3,4-dihydro-2H-benzo[e][1,2]oxaborinine-8-carboxylic acid]	1 to 10	Y (MIC of 1 μg/mL to 10 μg/mL)	Y (MIC of 1 μg/mL to 10 μg/mL)	Y (key: X: MIC of less than 1 ng/mL; Y: MIC of 1 μg/mL to 10 μg/mL; Z: MIC of greater than 10 μg/mL)	> 10	1 to 10	X (MIC of less than 1 μg/mL)	Y (MIC of 1 μg/mL to 10 μg/mL)	> 10	Y (MIC of 1 μg/mL to 10 μg/mL)	X (MIC of less than 1 μg/mL)	Z (key: X: MIC of less than 1 ng/mL; Y: MIC of 1 μg/mL to 10 μg/mL; Z: MIC of greater than 10 μg/mL)	Y (MIC of 1 μg/mL to 10 μg/mL)	X (key: X: MIC of less than 1 μg/mL; Y: MIC of 1 μg/mL to 10 μg/mL; Z: MIC of greater than 10 μg/mL)	Z (MIC of greater than 10 μg/mL)	Y (MIC of 1 μg/mL to 10 μg/mL)	< 1	99.7	X (key: X: MIC of less than 1 μg/mL; Y: MIC of 1 μg/mL to 10 μg/mL; Z: MIC of greater than 10 μg/mL)	> 10	AZT MPC4 KPC-2 KP1004 [22]: Y (MIC of 1 μg/mL to 10 μg/mL); AZT MPC4 CMY-6 EC1010 [23]: Y (key: X: MIC of less than 1 ng/mL; Y: MIC of 1 μg/mL to 10 μg/mL; Z: MIC of greater than 10 μg/mL)
